The values that follow come from patent US10472663B2, “Procedure for the rapid determination of bacterial susceptibility to antibiotics that inhibit protein synthesis” (ABM TECHNOLOGIES, LLC, priority 2015, dated 2019).

Values after ≈ are worked out from the molar mass of the structure shown.

Experiment [1] relates to Enterococcus faecalis. In words: Variant Micromax assay of cell lysis by lysozyme after erythromycin (Example 6). In kind it is cell-based. To be noted: for lysed cells: erythromycin 0.5 μg/ml 75 min, lysozyme 1 mg/ml during last 10 min. How it is done:
(§1) As an example, two strains of Enterococcus faecalis exponentially growing in Mueller-Hinton broth were incubated under four different conditions and then assayed. […] Each strain was subjected to four treatments for the purpose of rapidly distinguishing the susceptible and the resistant strain to erythromycin.
The dose was that indicated by the CLSI as the breakpoint of susceptibility to erythromycin in the standard antibiogram based on microdilution. Another portion of both strains was incubated with lysozyme 1 mg/ml, 10 min at 37° C. […]
After incubation with lysozyme, the cells were processed using a variant of the Micromax technology to visualize the nucleoids, i.e. spreading of the bacterial chromosomal DNA, in all the cells of the population. Samples from the cultures were immersed in an agarose microgel on a slide and incubated with a specific lysing solution to remove the cell wall in all the cells and release in the microgel the nucleoids contained inside the bacteria. These are dried, stained with a highly sensitive fluorochrome for DNA like SYBR Gold and visualized under fluorescence microscopy.

Experiment [2] relates to Enterococcus faecalis. As to the kind of experiment: MIC, standard antibiogram based on microdilution. In kind it is cell-based. How it is done:
A quantitative method may rely on dilution in a series of broths or agar solutions having progressively lower concentrations of the antibiotic in question. The lowest concentration of antibiotic in which the bacteria cannot grow provides the minimum inhibitory concentration of that antibiotic to the tested strain of bacteria. This quantitative method may be routinely employed in the hospitals, usually using commercial panels of antibiotics and semi-automated systems of incubation and software for data interpretation like the MicroScan WalkAway™ (Siemens), Phoenix (Becton Dickinson), or Vitek™ 2 (bioMérieux). With such growth-dependent automated systems, results of susceptibility or resistance to antimicrobians from a specific microorganism may be obtained in around 6-9 hours.
as §1

[3] abbreviates: erythromycin-susceptible strain.

As for `CC[C@H]1OC(=O)[C@H](C)[C@@H](O[C@H]2C[C@@](C)(OC)[C@@H](O)[C@H](C)O2)[C@H](C)[C@@H](O[C@@H]2O[C@H](C)C[C@H](N(C)C)[C@H]2O)[C@](C)(O)C[C@@H](C)C(=O)[C@H](C)[C@@H](O)[C@]1(C)O` [erythromycin], the lysed cells is 96.77% in the experiment on Enterococcus faecalis [1] (erythromycin-resistant strain) and 3.87% in the experiment with Enterococcus faecalis [1] (setting [3]). Further, the “response pattern in further Enterococcus strains” value with Enterococcus faecalis [1] (four more erythromycin-susceptible and thirteen more erythromycin-resistant strains) is recorded as “a similar response pattern has been reproduced”. Further, the MIC in the experiment with Enterococcus faecalis [2] (erythromycin-resistant strain) was more than 128 µg/mL; against Enterococcus faecalis [2] (setting [3]) it was 0.125 µg/mL (≈ 0.17 µM).

The term MIC denotes the lowest concentration found to suppress growth.
